# Reference: patent publication US4122184A, “Benzimidazole insecticides” (priority 1977, dated 1978)
# Where “and” joins values, the source holds several entries; their conditions need not be identical. Equal values may be shown once.
# Columns and labels:
# House Fly [1] = assay: Housefly (Contact) Test; type: in vivo, Musca domestica (Diptera); settings: 24 h
# Protocol: Rearing cages containing four-day old adult house flies are chilled at 35°-40° F. for about 1 hour. One hundred flies are transferred from the rearing cage to each test cage using a small scoop. The caged flies are kept for 1-2 hours at 70°-80° F. The cages are sprayed in the same manner as described for the milkweed bug with 5 ml. of the test formulation. Two unsprayed cages are held as controls and two cages are sprayed with a 50 ppm DDT formulation as a reference standard. Mortality counts are made 24 hours after spraying. […] The same rating scale is employed as heretofore.
# [2] = system: Tarnished Plant Bug Adults; assay: Field trial, stomach poison test; type: in vivo; set-up: key: mortality rating on a 0 to 9 scale
# Outline: (§1)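 Treated foliage (dipped, or sprayed at 10 psi, then dried) is offered to counted insects in dishes. Scoring of mortality uses a 0–9 scale at three time points up to 72 h.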
# [3] = system: Unidentified Green Leafhopper; assay: Field trial, stomach poison test; type: in vivo; set-up: key: mortality rating on a 0 to 9 scale
# Outline: as §1
# Alfalfa Weevil Larvae = assay: Field trial, contact poison test; type: in vivo
# Outline: (§2)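 Infested plants in water-filled bottles sprayed by atomizer at 10 psi with compound at several concentrations. Mortality read at 24, 48 and 72 hours on a 0–9 scale (0 = 0-10%, 9 = 91-100%), averaged per concentration.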
# Asparagus Beetles Adults = assay: Field trial, contact poison test; type: in vivo
# Outline: as §2
# [4] = system: Potato Flea Beetle Adults; assay: Field trial, contact poison test; type: in vivo
# Outline: as §2
# Picnic Beetle [5] = assay: Field trial (first summer), stomach; type: in vivo; settings: 250 ppm
# Protocol: Leaves from the infested plant are treated with different concentrations of the test compounds, either by spraying with a DeVilbiss Special Atomizer (5004) at 10 psi or by dipping the leaves in solutions containing the compound. The leaves are then allowed to air dry.
# After the leaves have dryed, they are placed in plastic petri dishes (100 × 25 mm), then the insects are counted out into each dish, five or ten insects per dish depending on the number of insects available. There are one or two replicates and usually two or three rates with each compound. Mortality results are taken at 24, 48 and 72 hours. The rating scale is 0 to 9.
# (§3) During the previous summer similar field trials were conducted employing the same tests as heretofore but with some additional species of insects not included in the later tests. The results listed below are for tests in which an insect mortality was established by a given application route and at a given concentration in a particular test. The same 0 - 9 scoring system is used as is the designation of compounds by alphabetical symbols.
# Milkweed Beetle = assay: Field trial (first summer), contact; type: in vivo; settings: 125 ppm
# From the text: (§4) Infested plants are placed in 6 oz. prescription bottles filled with water to keep them from wilting. Cellucotton is wrapped around the plant stem and squeezed into the bottle neck to prevent the insects from drowning.
# (§5) A DeVilbiss Special Atomizer (5004) is used at 10 psi to spray the test plant with different concentrations of compounds. The atomizer is held at arm's length to prevent blowing the insects off the host plant. After treating, the bottles are placed on a table covered with brown wrapping paper to catch the dead insects as they drop from the plant. The plants are spaced so the leaves or plants are not touching one another.
# (§6) The results are read at 24, 48, and 72 hours when applicable. The rating scale is 0 to 9 where 0 = 0-10 percent and 9 = 91-100 percent mortality.
# as §3
# Picnic Beetle [6] = assay: Field trial (first summer), contact; type: in vivo; settings: 250 ppm
# From the text: as §4, §5, §6, §3
# Armyworm, P. Unipuncta = assay: Field trial, stomach poison test; type: in vivo
# Outline: as §1
# Bagworms [7] = assay: Field trial, stomach poison test; type: in vivo
# Outline: as §1
# Eastern Tent Caterpillar [8] = assay: Field trial, stomach poison test; type: in vivo
# Outline: as §1
# Elm Leaf Beetle = assay: Field trial, stomach poison test; type: in vivo
# Outline: as §1
# [9] = system: Red-Legged Grasshopper Adults; assay: Field trial, stomach poison test; type: in vivo
# Outline: as §1
# Walnut Caterpillar = assay: Field trial, stomach poison test; type: in vivo
# Outline: as §1
# Bagworms [10] = assay: Field trial, contact poison test; type: in vivo; set-up: key: 0-9 scale: 0 = 0-10% mortality, 9 = 91-100% mortality
# From the text: as §4, §5, §6
# Using the above methods, field trials were carried out against species of 5 orders of insects. The results, which are summarized in the following tables, give the average mortality for the particular insect with a given benzimidazole for each concentration employed. […] These tables contain all results obtained during the summer trials.
# Eastern Tent Caterpillar [11] = assay: Field trial, topical application; type: in vivo
# Outline: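 1 μL benzimidazole solution of set microgram content applied topically to larvae or adults. Mortality read at 24, 48 and 72 h where applicable, rated 0-9 (0 = 0-10%, 9 = 91-100%); values are average mortality per concentration.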
# House Fly [12] = assay: Housefly (Stomach) Test; type: in vivo, Musca domestica (Diptera); settings: 24 h
# Protocol: Ten chilled house flies are taken from the rearing cage and placed in a covered petri dish. Sugar cubes treated with 0.2 ml. of a formulation containing a specified level of the insecticide are placed in the petri dish one hour after the flies have been removed from the chill room. Controls consist of sugar cubes treated with 0.2 ml. of deionized water and cubes treated with 0.2 ml. of a formulation containing 500 ppm of malathion. Mortality counts are made 24 hours later. The same rating scale is used as before.
molecule,measurement,setting,value
"CCCCCCOC(=O)n1c(C(F)(F)F)nc2c([N+](=O)[O-])cc(C(F)(F)F)cc21 [E, n-hexyl 2,6-bis(trifluoromethyl)-4-nitro-1-benzimidazolecarboxylate]",mortality rating,House Fly [1]; 10 ppm,4.5
same,mortality rating,House Fly [1]; 50 ppm,1.5
same,average mortality rating,[2]; 10 ppm,1
same,average mortality rating,[2]; 25 ppm,2
same,average mortality rating,[2]; 50 ppm,3
same,average mortality rating,[3]; 10 ppm,4
same,average mortality rating,[3]; 25 ppm,7
same,average mortality rating,[3]; 50 ppm,7
same,average mortality rating,Alfalfa Weevil Larvae; 500 ppm,4
same,average mortality rating,Alfalfa Weevil Larvae; 750 ppm,2
same,average mortality rating,Alfalfa Weevil Larvae; 1000 ppm,4
same,average mortality rating,Asparagus Beetles Adults; 10 ppm,7
same,average mortality rating,Asparagus Beetles Adults; 25 ppm,8
same,average mortality rating,Asparagus Beetles Adults; 50 ppm,9 (91-100 percent mortality)
same,average mortality rating,[4]; 10 ppm,6
same,average mortality rating,[4]; 25 ppm,9 (91-100 percent mortality)
same,average mortality rating,[4]; 50 ppm,9 (91-100 percent mortality)
same,average mortality rating,[4]; 100 ppm,9 (91-100 percent mortality)
same,average mortality rating,[4]; 250 ppm,9 (91-100 percent mortality)
same,insect mortality rating,Picnic Beetle [5],9 (91-100 percent mortality)
same,insect mortality rating,Milkweed Beetle,9 (91-100 percent mortality)
same,insect mortality rating,Picnic Beetle [6],9 (91-100 percent mortality)
"CC(C)OC(=O)n1c(C(F)(F)F)nc2c([N+](=O)[O-])cc(C(F)(F)F)cc21 [I, isopropyl 2,6-bis(trifluoromethyl)-4-nitro-1-benzimidazolecarboxylate]",average mortality rating,"Armyworm, P. Unipuncta; 125 ppm",2
same,average mortality rating,"Armyworm, P. Unipuncta; 250 ppm",4
same,average mortality rating,"Armyworm, P. Unipuncta; 500 ppm",2
same,average mortality rating,Bagworms [7]; 500 ppm,1
same,average mortality rating,Bagworms [7]; 750 ppm,0 (0-10 percent)
same,average mortality rating,Bagworms [7]; 1000 ppm,1
same,average mortality rating,Bagworms [7]; 1500 ppm,0 (0-10 percent)
same,average mortality rating,Bagworms [7]; 2500 ppm,1
same,average mortality rating,Bagworms [7]; 5000 ppm,1
same,average mortality rating,Eastern Tent Caterpillar [8]; 250 ppm,0 (0-10 percent)
same,average mortality rating,Eastern Tent Caterpillar [8]; 500 ppm,0 (0-10 percent)
same,average mortality rating,Eastern Tent Caterpillar [8]; 1000 ppm,0 (0-10 percent)
same,average mortality rating,Elm Leaf Beetle; 125 ppm,0 (0-10 percent)
same,average mortality rating,Elm Leaf Beetle; 250 ppm,0 (0-10 percent)
same,average mortality rating,Elm Leaf Beetle; 500 ppm,3
same,average mortality rating,[9]; 10 ppm,0 (0-10 percent)
same,average mortality rating,[9]; 25 ppm,4
same,average mortality rating,[9]; 50 ppm,4
same,average mortality rating,Walnut Caterpillar; 50 ppm,0 (0-10 percent)
same,average mortality rating,Walnut Caterpillar; 100 ppm,1
same,average mortality rating,Walnut Caterpillar; 250 ppm,2
same,average mortality rating,[2]; 10 ppm,3
same,average mortality rating,[2]; 25 ppm,4
same,average mortality rating,[2]; 50 ppm,2
same,average mortality rating,[3]; 10 ppm,2
same,average mortality rating,[3]; 25 ppm,6
same,average mortality rating,[3]; 50 ppm,7
same,average mortality rating,Alfalfa Weevil Larvae; 500 ppm,1
same,average mortality rating,Alfalfa Weevil Larvae; 750 ppm,2
same,average mortality rating,Alfalfa Weevil Larvae; 1000 ppm,1
same,average mortality rating,[4]; 10 ppm,9 (91-100 percent mortality)
same,average mortality rating,[4]; 25 ppm,9 (91-100 percent mortality)
same,average mortality rating,[4]; 50 ppm,9 (91-100 percent mortality)
same,average mortality rating,[4]; 100 ppm,9 (91-100 percent mortality)
same,average mortality rating,[4]; 250 ppm,9 (91-100 percent mortality)
same,average mortality rating,Bagworms [10]; 125 ppm,1
same,average mortality rating,Bagworms [10]; 250 ppm,4
same,average mortality rating,Bagworms [10]; 500 ppm,5
same,average mortality rating,Bagworms [10]; 750 ppm,2
same,average mortality rating,Bagworms [10]; 1000 ppm,1
same,average mortality rating,Bagworms [10]; 1500 ppm,0 (0-10 percent)
same,average mortality rating,Eastern Tent Caterpillar [11]; 0.3 μg/μl,0 (0-10 percent)
same,average mortality rating,Eastern Tent Caterpillar [11]; 0.6 μg/μl,1
same,average mortality rating,Eastern Tent Caterpillar [11]; 1.2 μg/μl,2
"O=[N+]([O-])c1cc(C(F)(F)F)cc2[nH]c(C(F)(F)Cl)nc12 [L, 2-chlorodifluoromethyl-4-nitro-6-trifluoromethylbenzimidazole]",mortality rating,House Fly [12]; 50 ppm,.5
same,average mortality rating,[2]; 10 ppm,0 (0-10 percent)
same,average mortality rating,[2]; 25 ppm,4
same,average mortality rating,[2]; 50 ppm,5
"mixture of N,N-dimethyl-4-nitro-2,6-bis(trifluoromethyl)thio-1-benzimidazolecarboxamide and N,N-dimethyl-7-nitro-2,5-bis(trifluoromethyl)thio-1-benzimidazolecarboxamide [P]",mortality rating,House Fly [1]; 10 ppm,4.0
same,mortality rating,House Fly [1]; 25 ppm,8.5
same,mortality rating,House Fly [1]; 50 ppm,9 (91-100)
same,mortality rating,House Fly [1]; 100 ppm,9 (91-100)
same,mortality rating,House Fly [1]; 250 ppm,9 (91-100)
same,mortality rating,House Fly [1]; 500 ppm,9 (91-100)
same,mortality rating,House Fly [1]; 1000 ppm,9 (91-100)
same,mortality rating,House Fly [12]; 50 ppm,0 (0-10)
same,mortality rating,House Fly [12]; 100 ppm,3 (31-40)
same,mortality rating,House Fly [12]; 250 ppm,7 (71-80)
same,mortality rating,House Fly [12]; 500 ppm,9 (91-100)
"mixture of benzyl 2,6-bis(trifluoromethyl)-4-nitro-1-benzimidazolecarboxylate and benzyl 2,5-bis(trifluoromethyl)-7-nitro-1-benzimidazolecarboxylate",mortality rating,House Fly [1]; 10 ppm,0 (0-10)
same,mortality rating,House Fly [1]; 25 ppm,0 (0-10)
same,mortality rating,House Fly [1]; 50 ppm,4 (41-50)
same,mortality rating,House Fly [1]; 100 ppm,5.5
same,mortality rating,House Fly [1]; 250 ppm,9 (91-100)
same,mortality rating,House Fly [1]; 500 ppm,9 (91-100)
same,mortality rating,House Fly [1]; 1000 ppm,9 (91-100)
same,mortality rating,House Fly [12]; 250 ppm,0 (0-10)
same,mortality rating,House Fly [12]; 500 ppm,4 (41-50)
same,mortality rating,House Fly [12]; 1000 ppm,9 (91-100)
same,average mortality rating,Alfalfa Weevil Larvae; 500 ppm,4
same,average mortality rating,Alfalfa Weevil Larvae; 750 ppm,4
same,average mortality rating,Alfalfa Weevil Larvae; 1000 ppm,6
"mixture of methyl 2,6-bis(trifluoromethyl)-4-nitro-1-benzimidazolecarboxylate and methyl 2,5-bis(trifluoromethyl)-7-nitro-1-benzimidazolecarboxylate",mortality rating,House Fly [1]; 10 ppm,0 (0-10)
same,mortality rating,House Fly [1]; 25 ppm,0 (0-10)
same,mortality rating,House Fly [1]; 50 ppm,9 (91-100)
same,mortality rating,House Fly [1]; 100 ppm,9 (91-100)
same,mortality rating,House Fly [1]; 250 ppm,9 (91-100)
same,mortality rating,House Fly [1]; 500 ppm,9 (91-100)
same,mortality rating,House Fly [1]; 1000 ppm,9 (91-100)
same,mortality rating,House Fly [12]; 250 ppm,2 (21-30)
same,mortality rating,House Fly [12]; 500 ppm,5.5
same,mortality rating,House Fly [12]; 1000 ppm,8.5
same,average mortality rating,[2]; 25 ppm,3
same,average mortality rating,[2]; 50 ppm,7 and 4
same,average mortality rating,[3]; 10 ppm,5
same,average mortality rating,[3]; 25 ppm,4
same,average mortality rating,[3]; 50 ppm,6
same,average mortality rating,Alfalfa Weevil Larvae; 500 ppm,2
same,average mortality rating,Alfalfa Weevil Larvae; 750 ppm,6
same,average mortality rating,Alfalfa Weevil Larvae; 1000 ppm,7
same,average mortality rating,Asparagus Beetles Adults; 10 ppm,3
same,average mortality rating,Asparagus Beetles Adults; 25 ppm,8
same,average mortality rating,Asparagus Beetles Adults; 50 ppm,9 (91-100 percent mortality)
same,insect mortality rating,Picnic Beetle [5],9 (91-100 percent mortality)
same,insect mortality rating,Milkweed Beetle,9 (91-100 percent mortality)
same,insect mortality rating,Picnic Beetle [6],9 (91-100 percent mortality)
"mixture of phenyl 2,6-bis(trifluoromethyl)-4-nitro-1-benzimidazolecarboxylate and phenyl 2,5-bis(trifluoromethyl)-1-benzimidazolecarboxylate",mortality rating,House Fly [1]; 10 ppm,3 (31-40)
same,mortality rating,House Fly [1]; 25 ppm,7 (71-80)
same,mortality rating,House Fly [1]; 50 ppm,7 (71-80)
same,mortality rating,House Fly [1]; 100 ppm,9 (91-100)
same,mortality rating,House Fly [1]; 250 ppm,9 (91-100)
same,mortality rating,House Fly [1]; 500 ppm,9 (91-100)
same,mortality rating,House Fly [1]; 1000 ppm,9 (91-100)
same,mortality rating,House Fly [12]; 100 ppm,0 (0-10)
same,mortality rating,House Fly [12]; 1000 ppm,9 (91-100)
same,average mortality rating,[3]; 10 ppm,0 (0-10 percent)
same,average mortality rating,[3]; 25 ppm,1
same,average mortality rating,[3]; 50 ppm,9 (91-100 percent mortality)
